From article PMC2751816, “Functional, Non-Clonal IgM^a-Restricted B Cell Receptor Interactions with the HIV-1 Envelope gp41 Membrane Proximal External Region” (PLoS ONE, 2009)
“Also recorded” adds a separate entry of the source.

Legend:
[1] = test system: BALB/c B cells (gp41 MPER tetramer binding); test: Cold inhibition of APC-labeled gp41 MPER tetramer binding by unlabeled tetramers; type: cell-based, mouse (BALB/c)
Protocol: FACS staining of single cell suspensions (≥2×10^6) was conducted using pre-mixed combinations of fluorochrome-labeled Abs and APC-conjugated B cell tetramers at empirically-determined optimal concentrations. All Abs were from BD unless otherwise stated. Primary antibodies used were: PerCP anti-B220, FITC anti-IgD, FITC, PE or PE-Cy7 anti-IgM, PE anti-CD5, FITC anti-CD11b, PE-Cy7 anti-CD19, FITC anti-CD21, PE-Cy7 anti-CD23 (eBiosciences), and PE-Cy7 anti-CD93 (eBiosciences). Other reagents included biotinylated Abs against dump channel markers: Thy1 (Abcam), F4/80 (Abcam), CD11c, Gr-1, TER-119, and NK-1.1, secondary staining SA-Texas Red conjugate; v-amine live/dead violet dye (Molecular Probes), and Fc block (anti-CD16/32).
Staining was conducted at 4°C in several sequential steps in FACS staining buffer (1X PBS with 2% FCS, 0.1% NaN3), washing twice between steps. Cells were first incubated with v-amine live/dead dye for 15 min, then stained with APC-labeled tetramers for 30 min (and in some experiments, cold tetramer was incubated at 10 fold molar excess for 1 h, prior to staining with APC-labeled tetramers). Cells were then stained with Fc block, followed by incubation with combinations of primary Abs, and secondary staining with SA-Texas Red, each for 30 min. Data (≥2.5×10^5 events/sample) were acquired using an LSRII flow cytometer and Cell Quest software (BD Immunocytometry systems). FACS Analysis was performed using FlowJo software (Tree Star). For analysis, cells were gated in the following order: single cells were gated based on fsc height vs. fsc area+ssc height vs. ssc profiles, lymphocytes were gated on fsc and ssc profile, residual dead cells were excluded by negative gating with v-amine live/dead dye, and irrelevant non-B cells were excluded by negative gating with dump markers.

[2] = test system: BALB/c splenic B cells; test: Alanine-substituted gp41 MPER mutant tetramers: binding to BALB/c splenic B cells (flow cytometry); type: cell-based, mouse (BALB/c); settings: APC mutant tetramers 100 ng/10^6 cells, MFI; average of two experiments; Fig. 7B middle
Description: Figure 7 Mapping of gp41 MPER residues required for high frequency interactions with IgM^a. A) List of peptides (annotated numerically according to position of substitution) used to make mutant tetramers with sequential alanine substitutions (in red) along the gp41 MPER region containing the nominal 2F5 epitope. B) Comparison of gp41 MPER residues required for binding bnAb 2F5 with those required for allotypic interactions with IgM. Shown is relative binding of mutant tetramers with either 2F5 (upper panel), naïve BALB/c total splenic B cells (middle panel), and 9G8 (lower panel). Tetramers with corresponding substituted positions in the 2F5 epitope are indicated on the x-axis, with those in blue and red representing mutated residues with >3 and >10 fold binding reductions, respectively. For measuring mutant tetramer binding to 2F5, unlabeled versions of tetramers were used in SPR analysis, as described in Materials and Methods. […]
N-biotinylated, linker/spacer-containing peptides used to make tetramers are detailed in Table S4 and Fig. 7A. […] Purified tetramer preparations were determined using the Micro BSA protein assay kit (Pierce Biotechnology).
FACS staining of single cell suspensions (≥2×10^6) was conducted using pre-mixed combinations of fluorochrome-labeled Abs and APC-conjugated B cell tetramers at empirically-determined optimal concentrations. […]

[3] = test system: MZ and B1 B cells; settings: gp41 MPER-immunized BALB/c mice; ref L. Verkoczy and B. Haynes, unpublished results; cited from earlier work
Description: Classical B-cell sAgs, like the S. aureus protein A subunit (SpA), can bind to and activate large populations of B cells, may cause selective deletion of MZ and B1 B cell subsets, and bind to B cells based on VH family usage, [52]. Similarly, sAg interactions of HIV-1 gp120 with human B cells have been described (reviewed in [37] and [53]–[56]), resulting in a VH3-skewed repertoire in HIV-1 infected individuals (reviewed in [57] and [58]–[60]). […] In this context, one obvious question arising from our studies is what are the physiological consequences of weak and/or incomplete signaling by gp41 MPER (Fig. 8). One possibility is that incomplete activation of B cells by low affinity MPER binding could suppress the T-independent component of MPER Ab respon ...

QQEKNEQELLELDKWASLWN [gp41 MPER tetramer, (residues 659–678 of the HIV-1 envelope)]
inhibition of APC-labeled gp41 MPER tetramer binding ([1]; pre-incubation with unlabeled competitor at 10-fold molar excess, 100 ng/10^6 splenocytes): > 90%
inhibition of APC-labeled gp41 MPER tetramer binding (in words) ([1]; unlabeled competitor tetramer pre-incubated, Fig. 4A,B, average of three experiments (4B)): Dose-dependent inhibition of APC-labeled gp41 MPER peptide binding was observed
gp41 MPER residues required for binding (in words) [2]: mapped to 660Q and a 677 W, both located outside the core 2F5 epitope
B cell subset deletion after immunization (in words) [3]: partial deletion of MZ and B1 B cells in gp41 MPER-immunized BALB/c mice; also recorded: reduced MZ B cell populations in gp41 MPER-immunized BALB/c mice
